Source: patent US11208400B2, “Substituted 6-(1H-pyrazol-1-yl)pyrimidin-4-amine derivatives and uses thereof” (Bayer Aktiengesellschaft, priority 2016, dated 2021)

Molecular target: T1, human Npt2a (Homo sapiens, UniProt Q06495)
T1 construct: expressed in transfected cells
T1 sequence (Q06495 1-639): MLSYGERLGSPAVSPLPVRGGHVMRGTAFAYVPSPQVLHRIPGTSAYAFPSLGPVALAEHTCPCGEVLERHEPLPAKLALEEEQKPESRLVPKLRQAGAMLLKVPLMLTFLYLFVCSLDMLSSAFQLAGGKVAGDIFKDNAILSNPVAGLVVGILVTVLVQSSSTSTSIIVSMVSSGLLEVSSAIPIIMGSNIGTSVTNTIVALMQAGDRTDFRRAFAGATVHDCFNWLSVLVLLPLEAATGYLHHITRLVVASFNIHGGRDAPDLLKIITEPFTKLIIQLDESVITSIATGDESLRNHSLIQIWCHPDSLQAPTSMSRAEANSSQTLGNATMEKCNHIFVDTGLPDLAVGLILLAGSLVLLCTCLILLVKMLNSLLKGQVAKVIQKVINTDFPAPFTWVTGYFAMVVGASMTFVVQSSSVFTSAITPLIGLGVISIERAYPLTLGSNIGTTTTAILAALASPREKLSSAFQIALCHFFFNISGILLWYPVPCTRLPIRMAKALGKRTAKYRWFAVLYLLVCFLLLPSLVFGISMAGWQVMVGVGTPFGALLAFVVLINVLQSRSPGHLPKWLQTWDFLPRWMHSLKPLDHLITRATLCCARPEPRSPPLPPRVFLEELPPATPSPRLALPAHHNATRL
Assay: Npt2a activity cell based assay, membrane potential dye, CHO T-REx hNpt2a cells
Conditions: doxycycline-induced, depolarization by sodium phosphate influx, average or median values if tested more than once
Outline: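 Cells were doxycycline-induced CHO T-REx hNpt2a, dye-loaded and pretreated 5 min at RT with 1 nM–50 μM compound in Na-free pH 7.4 buffer. IC50 was fit to the post/pre-trigger fluorescence ratio.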

Compound	IC50
CCc1c(Nc2cc(-n3nc(C)c(C(=O)N4CC(F)C4)c3C)ncn2)nn(C)c1-c1ccc(F)cc1 [Example 126, [1-(6-{[4-ethyl-5-(4-fluorophenyl)-1-methyl-1H-pyrazol-3-yl]amino}pyrimidin-4-yl)-3,5-dimethyl-1H-pyrazol-4-yl](3-fluoroazetidin-1-yl)methanone]	975 nM
CCc1c(Nc2cc(-n3nc(C)c(C(=O)N(C)C)c3C)ncn2)nn(C)c1-c1ccc(F)cc1 [Example 127, 1-(6-{[4-ethyl-5-(4-fluorophenyl)-1-methyl-1H-pyrazol-3-yl]amino}pyrimidin-4-yl)-N,N,3,5-tetramethyl-1H-pyrazole-4-carboxamide]	1200 nM
CCc1c(Nc2cc(-n3nc(C)c(C(=O)N4CCC(C(F)F)C4)c3C)ncn2)nn(C)c1-c1ccc(F)cc1 (stereo not drawn) [Example 128, [3-(difluoromethyl)pyrrolidin-1-yl][1-(6-{[4-ethyl-5-(4-fluorophenyl)-1-methyl-1H-pyrazol-3-yl]amino}pyrimidin-4-yl)-3,5-dimethyl-1H-pyrazol-4-yl]methanone]	1300 nM
Cc1cc(C)n(-c2cc(Nc3c(Cl)c(-c4ccc(F)cc4)nn3CC(F)F)ncn2)n1 [Example 129, N-[4-chloro-1-(2,2-difluoroethyl)-3-(4-fluorophenyl)-1H-pyrazol-5-yl]-6-(3,5-dimethyl-1H-pyrazol-1-yl)pyrimidin-4-amine]	78 nM
Cc1nn(-c2cc(Nc3nn(CC(F)F)c(-c4ccc(F)cc4)c3Cl)ncn2)c(C)c1Cl [Example 130, N-[4-chloro-1-(2,2-difluoroethyl)-5-(4-fluorophenyl)-1H-pyrazol-3-yl]-6-(4-chloro-3,5-dimethyl-1H-pyrazol-1-yl)pyrimidin-4-amine]	28 nM
CCc1c(Nc2cc(-n3nc(C)cc3C)ncn2)n[nH]c1-c1ccc(F)cc1C [Example 131, 6-(3,5-dimethyl-1H-pyrazol-1-yl)-N-[4-ethyl-5-(4-fluoro-2-methylphenyl)-1H-pyrazol-3-yl]pyrimidin-4-amine]	1600 nM
Cc1cc(C)n(-c2cc(Nc3nn(CC(F)F)c(-c4ccc(F)cc4)c3Cl)ncn2)n1 [Example 132, N-[4-chloro-1-(2,2-difluoroethyl)-5-(4-fluorophenyl)-1H-pyrazol-3-yl]-6-(3,5-dimethyl-1H-pyrazol-1-yl)pyrimidin-4-amine]	39 nM
CCc1c(Nc2cc(-n3nc(C)c4c3CCCC4=O)ncn2)nn(C)c1-c1ccc(F)cc1 [Example 133, 1-(6-{[4-ethyl-5-(4-fluorophenyl)-1-methyl-1H-pyrazol-3-yl]amino}pyrimidin-4-yl)-3-methyl-1,5,6,7-tetrahydro-4H-indazol-4-one]	57 nM
Cc1cc(C)n(-c2cc(Nc3n[nH]c(-c4ccc(C#N)cc4)c3C)ncn2)n1 [Example 135, 4-(3-{[6-(3,5-dimethyl-1H-pyrazol-1-yl)pyrimidin-4-yl]amino}-4-methyl-1H-pyrazol-5-yl)benzonitrile]	700 nM
CCOC(=O)c1c(C)nn(-c2cc(Nc3n[nH]c(-c4ccc(C#N)cc4)c3C)ncn2)c1C [Example 136, ethyl 1-(6-{[5-(4-cyanophenyl)-4-methyl-1H-pyrazol-3-yl]amino}pyrimidin-4-yl)-3,5-dimethyl-1H-pyrazole-4-carboxylate]	360 nM
Cc1nn(-c2cc(Nc3n[nH]c(-c4ccc(C#N)cc4)c3C)ncn2)c(C)c1Cl [Example 137, 4-(3-{[6-(4-chloro-3,5-dimethyl-1H-pyrazol-1-yl)pyrimidin-4-yl]amino}-4-methyl-1H-pyrazol-5-yl)benzonitrile]	71 nM
Cc1nn(-c2cc(Nc3nn(C)c(-c4ccc(F)cc4)c3C)ncn2)c(C)c1C1(O)CC1 [Example 138, 1-[1-(6-{[5-(4-fluorophenyl)-1,4-dimethyl-1H-pyrazol-3-yl]amino}pyrimidin-4-yl)-3,5-dimethyl-1H-pyrazol-4-yl]cyclopropanol]	150 nM
Cc1nn(-c2cc(Nc3c(C)c(-c4ccc(F)cc4)nn3C)ncn2)c(C(F)F)c1Cl [Example 139, 6-[4-chloro-5-(difluoromethyl)-3-methyl-1H-pyrazol-1-yl]-N-[3-(4-fluorophenyl)-1,4-dimethyl-1H-pyrazol-5-yl]pyrimidin-4-amine]	130 nM
Cc1nn(-c2cc(Nc3n[nH]c(-c4ccc(F)cc4)c3C)ncn2)c(C(F)F)c1Cl [Example 140, 6-[4-chloro-5-(difluoromethyl)-3-methyl-1H-pyrazol-1-yl]-N-[5-(4-fluorophenyl)-4-methyl-1H-pyrazol-3-yl]pyrimidin-4-amine]	23 nM
Cc1cc(C)n(-c2cc(Nc3c(C)c(-c4ccc(C#N)cc4)nn3CC3CC3)ncn2)n1 [Example 141, 4-[1-(cyclopropylmethyl)-5-{[6-(3,5-dimethyl-1H-pyrazol-1-yl)pyrimidin-4-yl]amino}-4-methyl-1H-pyrazol-3-yl]benzonitrile]	3 nM
Cc1cc(C(F)F)n(-c2cc(Nc3c(C)c(-c4ccc(C#N)cc4)nn3CC3CC3)ncn2)n1 [Example 142, 4-[1-(cyclopropylmethyl)-5-{(6-[5-(difluoromethyl)-3-methyl-1H-pyrazol-1-yl]pyrimidin-4-yl}amino)-4-methyl-1H-pyrazol-3-yl]benzonitrile]	3 nM
CCc1c(Nc2cc(-n3nc(C)cc3C)ncn2)nn(CC2CC2)c1-c1ccc(F)cc1 [Example 143, N-[1-(cyclopropylmethyl)-4-ethyl-5-(4-fluorophenyl)-1H-pyrazol-3-yl]-6-(3,5-dimethyl-1H-pyrazol-1-yl)pyrimidin-4-amine]	415 nM
CCc1c(Nc2cc(-n3nc(C)c(Cl)c3C)ncn2)nn(CC2CC2)c1-c1ccc(F)cc1 [Example 144, 6-(4-chloro-3,5-dimethyl-1H-pyrazol-1-yl)-N-[1-(cyclopropylmethyl)-4-ethyl-5-(4-fluorophenyl)-1H-pyrazol-3-yl]pyrimidin-4-amine]	520 nM
CCOC(=O)c1c(C)nn(-c2cc(Nc3nn(CC4CC4)c(-c4ccc(F)cc4)c3CC)ncn2)c1C [Example 145, ethyl 1-(6-{[1-(cyclopropylmethyl)-4-ethyl-5-(4-fluorophenyl)-1H-pyrazol-3-yl]amino}pyrimidin-4-yl)-3,5-dimethyl-1H-pyrazole-4-carboxylate]	170 nM
CCOC(=O)c1c(C)nn(-c2cc(Nc3c(CC)c(-c4ccc(F)cc4)nn3CC3CC3)ncn2)c1C [Example 147, ethyl 1-(6-{[1-(cyclopropylmethyl)-4-ethyl-3-(4-fluorophenyl)-1H-pyrazol-5-yl]amino}pyrimidin-4-yl)-3,5-dimethyl-1H-pyrazole-4-carboxylate]	3 nM
CCc1c(-c2ccc(F)cc2)nn(CC2CC2)c1Nc1cc(-n2nc(C)c(Cl)c2C(F)F)ncn1 [Example 148, 6-[4-chloro-5-(difluoromethyl)-3-methyl-1H-pyrazol-1-yl]-N-[1-(cyclopropylmethyl)-4-ethyl-3-(4-fluorophenyl)-1H-pyrazol-5-yl]pyrimidin-4-amine]	80 nM
CCOC(=O)c1c(C)nn(-c2cc(Nc3c(C)c(-c4ccc(C#N)cc4)nn3CC3CC3)ncn2)c1C [Example 149, ethyl 1-(6-{[3-(4-cyanophenyl)-1-(cyclopropylmethyl)-4-methyl-1H-pyrazol-5-yl]amino}pyrimidin-4-yl)-3,5-dimethyl-1H-pyrazole-4-carboxylate]	7 nM
CCOC(=O)c1c(C)nn(-c2cc(Nc3nn(CC4CC4)c(-c4ccc(F)cc4)c3C)ncn2)c1C [Example 151, ethyl 1-(6-{[1-(cyclopropylmethyl)-5-(4-fluorophenyl)-4-methyl-1H-pyrazol-3-yl]amino}pyrimidin-4-yl)-3,5-dimethyl-1H-pyrazole-4-carboxylate]	390 nM
CCOC(=O)c1c(C)nn(-c2cc(Nc3c(C)c(-c4ccc(F)cc4)nn3CC3CC3)ncn2)c1C [Example 152, ethyl 1-(6-{[1-(cyclopropylmethyl)-3-(4-fluorophenyl)-4-methyl-1H-pyrazol-5-yl]amino}pyrimidin-4-yl)-3,5-dimethyl-1H-pyrazole-4-carboxylate]	6 nM
CCOC(=O)c1c(C)nn(-c2cc(Nc3nn(CC4CC4)c(-c4ccc(F)cc4)c3Cl)ncn2)c1C [Example 153, ethyl 1-(6-{[4-chloro-1-(cyclopropylmethyl)-5-(4-fluorophenyl)-1H-pyrazol-3-yl]amino}pyrimidin-4-yl)-3,5-dimethyl-1H-pyrazole-4-carboxylate]	410 nM
Cc1nn(-c2cc(Nc3c(C)c(-c4ccc(C#N)cc4)nn3CC3CC3)ncn2)c(C(F)F)c1Cl [Example 154, 4-[5-({6-[4-chloro-5-(difluoromethyl)-3-methyl-1H-pyrazol-1-yl]pyrimidin-4-yl}amino)-1-(cyclopropylmethyl)-4-methyl-1H-pyrazol-3-yl]benzonitrile]	3 nM
CCOC(=O)c1c(C)nn(-c2cc(Nc3c(CC)c(-c4ccc(F)cc4)nn3C)ncn2)c1C [Example 155, ethyl 1-(6-{[4-ethyl-3-(4-fluorophenyl)-1-methyl-1H-pyrazol-5-yl]amino}pyrimidin-4-yl)-3,5-dimethyl-1H-pyrazole-4-carboxylate]	9 nM
